Laboratory results published in patent US20230128815A1, “ADJUVANT COMPOUNDS, SALT FORMS, AND FORMULATIONS” (ADJUVANCE TECHNOLOGIES, INC., priority 2020, published 2023).
Structures can show the parent of a compound that is named as a salt.

Columns and labels:
Solubility in water = type: physicochemical
[1] = Dynamic vapor sorption (DVS) / humidity-dependent form stability; type: physicochemical
Protocol: Automated vapor sorption (VS) data were collected on a Surface Measurement System DVS Intrinsic instrument. Samples were not dried prior to analysis. Sorption and desorption data were collected over a range from 5% to 95% RH at 10% RH increments under a nitrogen purge. The equilibrium criterion used for analysis was less than 0.0100% weight change in 5 minutes with a maximum equilibration time of 3 hours. Data were not corrected for the initial moisture content of the samples.

[2] = TQL-1055 choline salt and free acid ethanol solubility; type: physicochemical; conditions: 100% ethanol, 37 °C, organic solvent or mixture, thermodynamic from solid, solubility in 100% ethanol, vortex mixed, sonicated at 37° C. for five minutes
Protocol: An experiment was conducted to determine the solubility of TQL-1055 choline salt and TQL-1055 free acid in ethanol. Several samples were prepared, each containing either TQL-1055 choline salt or TQL-1055 free acid dissolved in a 100% ethanol solution at a concentration of 4 mg/ml. All samples were mixed using a vortex mixer and subsequently sonicated at 37° C. for five minutes. Neither the TQL-1055 choline salt nor the TQL-1055 free acid were fully dissolved at 4 mg/ml. Samples were then diluted to 3.5 mg/ml, 3 mg/ml, 2.5 mg/ml, or 2 mg/ml and re-sonicated. As depicted in FIGS. 16-18, TQL-1055 choline salt was completely dissolved at a concentration of 3 mg/ml, whereas TQL-1055 free acid was completely dissolved at a concentration of 2 mg/ml. Accordingly, TQL-1055 choline salt is soluble in 100% ethanol up to concentrations of approximately 3 mg/ml, whereas TQL-1055 free acid is soluble in 100% ethanol up to concentrations of approximately 2 mg/ml.

[3] = compared to QS-21; cited from earlier work
[4] = from 5 to 65% relative humidity

solubility (Solubility in water) [µg/mL] | DVS additional weight gain ([1]; above 65% up to 95% relative humidity) [%] | DVS weight gain [1, 4] [%] | water gain equivalent to DVS weight gain [1, 4] [mol/mol] | DVS weight loss on desorption ([1]; from 95 to 5% relative humidity) [%] | relative humidity above which the form converts to higher hydrate Choline Material B ([1]; relative humidity) | solubility at 5 min [2] [µg/mL] | solubility in water at physiological pH (Solubility in water; physiological pH) | Compound | efficacy as compared to the natural product [3] | toxicity as compared to the natural product [3]
> 6000 | 14 | 5 | ~3.5 | 19 | above 65% | – | – | CC1O[C@@H](OC2C(O)[C@@H](NC(=O)CCCCCCCCCCC(=O)O)C(CO)O[C@H]2OC(=O)[C@]23CCC(C)(C)CC2C2=CCC4C5(C)CC[C@H](O)C(C)(C=O)C5CCC4(C)C2(C)CC3O)C(O)C(O)[C@H]1O[C@@H]1OC[C@@H](O)C(O)C1O (some centres unmarked) [Form A] | – | –
– | – | – | – | – | – | ~3000 | – | CC1O[C@@H](OC2C(O)[C@@H](NC(=O)CCCCCCCCCCC(=O)O)C(CO)O[C@H]2OC(=O)[C@]23CCC(C)(C)CC2C2=CCC4C5(C)CC[C@H](O)C(C)(C=O)C5CCC4(C)C2(C)CC3O)C(O)C(O)[C@H]1O[C@@H]1OC[C@@H](O)C(O)C1O (some centres unmarked) [TQL-1055 choline salt] | – | –
– | – | – | – | – | – | ~2000 | poor solubility | CC1O[C@@H](OC2C(O)[C@@H](NC(=O)CCCCCCCCCCC(=O)O)C(CO)O[C@H]2OC(=O)[C@]23CCC(C)(C)CC2C2=CCC4C5(C)CC[C@H](O)[C@](C)(C=O)[C@@H]5CC[C@]4(C)[C@]2(C)CC3O)C(O)C(O)[C@H]1O[C@@H]1OC[C@@H](O)C(O)C1O (some centres unmarked) [Compound I-4] | improved efficacy | reduced toxicity
